Laboratory results published in PubChem BioAssay AID1963827 (Molecular Pharmacology Branch, DTP, NCI, 2024).

Tested on: 994946-033-R-J1-PDC complex spheroid viability
Test: Anticancer human tumor 994946-033-R-J1-PDC patient-derived melanoma cell line growth inhibition [POLQ]
Conditions: for IC50: curve of first compound; for viability, T/C: stronger effect = lower value
Outline: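 Patient-derived tumour cells were co-cultured with HUVEC and mesenchymal stem cells as multicellular spheroids at 37 °C. They were treated with POLQ inhibitors (novobiocin, ART-558, RP6685) alone or combined with other agents. Top concentrations were at or near clinical Cmax (otherwise 10 microM; SN-38 at 1 microM), decreasing in half-log steps.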

[1] = second compound 0.0316 µM, first compound 0.0316 µM
[2] = second compound 0.0316 µM, first compound 0.1 µM
[3] = second compound 0.0316 µM, first compound 0.316 µM
[4] = second compound 0.0316 µM, first compound 1 µM
[5] = second compound 0.0316 µM, first compound 3.16 µM
[6] = second compound 0.0316 µM, first compound 10 µM
[7] = second compound 0.1 µM, first compound 0.0316 µM
[8] = second compound 0.1 µM, first compound 0.1 µM
[9] = second compound 0.1 µM, first compound 0.316 µM
[10] = second compound 0.1 µM, first compound 1 µM
[11] = second compound 0.1 µM, first compound 3.16 µM
[12] = second compound 0.1 µM, first compound 10 µM
[13] = second compound 0.316 µM, first compound 0.0316 µM
[14] = second compound 0.316 µM, first compound 0.1 µM
[15] = second compound 0.316 µM, first compound 0.316 µM
[16] = second compound 0.316 µM, first compound 1 µM
[17] = second compound 0.316 µM, first compound 3.16 µM
[18] = second compound 0.316 µM, first compound 10 µM
[19] = second compound 1 µM, first compound 0.0316 µM
[20] = second compound 1 µM, first compound 0.1 µM
[21] = second compound 1 µM, first compound 0.316 µM
[22] = second compound 1 µM, first compound 1 µM
[23] = second compound 1 µM, first compound 3.16 µM
[24] = second compound 1 µM, first compound 10 µM
[25] = second compound 3.16 µM, first compound 0.0316 µM
[26] = second compound 3.16 µM, first compound 0.1 µM
[27] = second compound 3.16 µM, first compound 0.316 µM
[28] = second compound 3.16 µM, first compound 1 µM
[29] = second compound 3.16 µM, first compound 3.16 µM
[30] = second compound 3.16 µM, first compound 10 µM
[31] = second compound 10 µM, first compound 0.0316 µM
[32] = second compound 10 µM, first compound 0.1 µM
[33] = second compound 10 µM, first compound 0.316 µM
[34] = second compound 10 µM, first compound 1 µM
[35] = second compound 10 µM, first compound 3.16 µM
[36] = second compound 10 µM, first compound 10 µM
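Also: spheroids exposed to drugs for 7 days.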
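For viability, T/C in this document: 100% = DMSO vehicle treated spheroids.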

C#Cc1c(F)ccc2cc(O)cc(-c3ncc4c(N5CC6CCC(C5)N6)nc(OCC56CCCN5CC(F)C6)nc4c3F)c12 (stereo unspecified) + Nc1ccc(C#CCN(C(=O)Cc2ncc(C(F)(F)F)cc2C(F)(F)F)c2ccc(F)cc2)nn1
IC50 (second compound 0.0316 µM): 4.28 µM | IC50 (second compound 0.1 µM): 5.46 µM | IC50 (second compound 0.316 µM): 5.99 µM | IC50 (second compound 1 µM): 3.66 µM | IC50 (second compound 3.16 µM): 5.38 µM | IC50 (second compound 10 µM): 5.09 µM | viability, T/C [1]: 101% | viability, T/C [2]: 109% | viability, T/C [3]: 91.9% | viability, T/C [4]: 82.5% | viability, T/C [5]: 67.2% | viability, T/C [6]: 11.7% | viability, T/C [7]: 90.2% | viability, T/C [8]: 88.9% | viability, T/C [9]: 97.8% | viability, T/C [10]: 74.1% | viability, T/C [11]: 81% | viability, T/C [12]: 19.1% | viability, T/C [13]: 100% | viability, T/C [14]: 84.7% | viability, T/C [15]: 74.8% | viability, T/C [16]: 96.2% | viability, T/C [17]: 84.1% | viability, T/C [18]: 22.3% | viability, T/C [19]: 80.6% | viability, T/C [20]: 89.8% | viability, T/C [21]: 90.1% | viability, T/C [22]: 66.5% | viability, T/C [23]: 59.8% | viability, T/C [24]: 5.38% | viability, T/C [25]: 74.4% | viability, T/C [26]: 85.1% | viability, T/C [27]: 102% | viability, T/C [28]: 79.1% | viability, T/C [29]: 81.1% | viability, T/C [30]: 13.7% | viability, T/C [31]: 80% | viability, T/C [32]: 106% | viability, T/C [33]: 76.2% | viability, T/C [34]: 112% | viability, T/C [35]: 71% | viability, T/C [36]: 20.3%

Cn1ncnc1[C@H]1c2n[nH]c(=O)c3cc(F)cc(c23)N[C@@H]1c1ccc(F)cc1 + Nc1ccc(C#CCN(C(=O)Cc2ncc(C(F)(F)F)cc2C(F)(F)F)c2ccc(F)cc2)nn1
IC50 (second compound 0.0316 µM): > 0.1 µM | IC50 (second compound 0.1 µM): > 0.1 µM | IC50 (second compound 0.316 µM): > 0.1 µM | IC50 (second compound 1 µM): > 0.1 µM | IC50 (second compound 3.16 µM): > 0.1 µM | IC50 (second compound 10 µM): > 0.1 µM | viability, T/C (second compound 0.0316 µM, first compound 0.000316 µM): 98.5% | viability, T/C (second compound 0.0316 µM, first compound 0.001 µM): 99.3% | viability, T/C (second compound 0.0316 µM, first compound 0.00316 µM): 79.2% | viability, T/C (second compound 0.0316 µM, first compound 0.01 µM): 91.6% | viability, T/C [1]: 86.8% | viability, T/C [2]: 54.3% | viability, T/C (second compound 0.1 µM, first compound 0.000316 µM): 101% | viability, T/C (second compound 0.1 µM, first compound 0.001 µM): 71.5% | viability, T/C (second compound 0.1 µM, first compound 0.00316 µM): 69% | viability, T/C (second compound 0.1 µM, first compound 0.01 µM): 93.8% | viability, T/C [7]: 59.2% | viability, T/C [8]: 65.9% | viability, T/C (second compound 0.316 µM, first compound 0.000316 µM): 110% | viability, T/C (second compound 0.316 µM, first compound 0.001 µM): 48.7% | viability, T/C (second compound 0.316 µM, first compound 0.00316 µM): 92.3% | viability, T/C (second compound 0.316 µM, first compound 0.01 µM): 70.8% | viability, T/C [13]: 77.3% | viability, T/C [14]: 51% | viability, T/C (second compound 1 µM, first compound 0.000316 µM): 65.3% | viability, T/C (second compound 1 µM, first compound 0.001 µM): 93% | viability, T/C (second compound 1 µM, first compound 0.00316 µM): 71.5% | viability, T/C (second compound 1 µM, first compound 0.01 µM): 72.4% | viability, T/C [19]: 59.2% | viability, T/C [20]: 55% | viability, T/C (second compound 3.16 µM, first compound 0.000316 µM): 116% | viability, T/C (second compound 3.16 µM, first compound 0.001 µM): 69.4% | viability, T/C (second compound 3.16 µM, first compound 0.00316 µM): 74.5% | viability, T/C (second compound 3.16 µM, first compound 0.01 µM): 62% | viability, T/C [25]: 68.6% | viability, T/C [26]: 79.7% | viability, T/C (second compound 10 µM, first compound 0.000316 µM): 77.7% | viability, T/C (second compound 10 µM, first compound 0.001 µM): 91% | viability, T/C (second compound 10 µM, first compound 0.00316 µM): 87.3% | viability, T/C (second compound 10 µM, first compound 0.01 µM): 87% | viability, T/C [31]: 67.7% | viability, T/C [32]: 57.2%

O=c1[nH]cc(F)c(=O)[nH]1 + Cc1cccc(N(C)C(=O)C2C(O)CCN2c2nc(C)cc(C(F)(F)F)c2C#N)c1
IC50 (second compound 0.0316 µM): 4.63 µM | IC50 (second compound 0.1 µM): 2.49 µM | IC50 (second compound 0.316 µM): 2.29 µM | IC50 (second compound 1 µM): > 10 µM | IC50 (second compound 3.16 µM): 1.46 µM | IC50 (second compound 10 µM): 10 µM | viability, T/C [1]: 97.5% | viability, T/C [2]: 91.7% | viability, T/C [3]: 63.8% | viability, T/C [4]: 71.5% | viability, T/C [5]: 48.6% | viability, T/C [6]: 45.2% | viability, T/C [7]: 91.6% | viability, T/C [8]: 106% | viability, T/C [9]: 101% | viability, T/C [10]: 69.1% | viability, T/C [11]: 49.4% | viability, T/C [12]: 36.3% | viability, T/C [13]: 85.5% | viability, T/C [14]: 78.7% | viability, T/C [15]: 89.8% | viability, T/C [16]: 62.4% | viability, T/C [17]: 45.6% | viability, T/C [18]: 44.6% | viability, T/C [19]: 95% | viability, T/C [20]: 63.2% | viability, T/C [21]: 63% | viability, T/C [22]: 56.8% | viability, T/C [23]: 52.3% | viability, T/C [24]: 47.8% | viability, T/C [25]: 99.3% | viability, T/C [26]: 95% | viability, T/C [27]: 66% | viability, T/C [28]: 55.2% | viability, T/C [29]: 45.3% | viability, T/C [30]: 47.3% | viability, T/C [31]: 97.1% | viability, T/C [32]: 103% | viability, T/C [33]: 52.7% | viability, T/C [34]: 58.5% | viability, T/C [35]: 49.7% | viability, T/C [36]: 43%
